Earlier results in US7286970B2, “Computational model, method, and system for kinetically-tailoring multi-drug chemotherapy for individuals” (The Regents of the University of California, priority 2002, dated 2007).
Marks after values point to notes of the source that are not given here.

Conditions: for Plasma Half-life: in vivo

O=c1[nH]cc(F)c(=O)[nH]1 [5-Fluorouracil, 5-fluorouracil]
half-life: about 15 min

O=P1(N(CCCl)CCCl)NCCCO1 (centres unmarked) [Cyclophosphamide, cyclophosphamide]
Plasma Half-life: 4^d h

COc1cccc2c1C(=O)c1c(O)c3c(c(O)c1C2=O)C[C@@](O)(C(=O)CO)C[C@@H]3O[C@H]1C[C@H](N)[C@H](O)[C@H](C)O1 [Doxorubicin, doxorubicin]
Plasma Half-life: 25^d h

CN(Cc1cnc2nc(N)nc(N)c2n1)c1ccc(C(=O)N[C@@H](CCC(=O)O)C(=O)O)cc1 [Methotrexate, methotrexate]
Plasma Half-life: 8^d h

CC/C(=C(\c1ccccc1)c1ccc(OCCN(C)C)cc1)c1ccccc1 [Tamoxifen, tamoxifen]
Plasma Half-life: 10^e h
